Source: article PMC13195669, “GPR3 Ligands Discovered through Combined Virtual and Conformational Biosensor-Based Screening” (Journal of the American Chemical Society, 2026)

Tested on: β2AR
Assay: β2AR-HaloTag/Nluc conformational biosensor (negative control) in HEK293A cells
Assay type: cell-based, human
Conditions: β2AR-HaloTag/Nluc as negative control; HEK293A stable
Procedure: Initially, all 93 molecules were tested for activity at the GPR3 biosensor at a concentration of 1 μM (Figure a). […] Of the five compounds that emerged from the virtual screen, three–hereafter referred to as virtual hit 1–3, VH1/2/3–were selected for in-house chemical synthesis (compounds 52, 93, and 115; cf. Scheme , Figure S6), providing compounds of ≥99% purity for hit validation (NMR spectra: Figures S7–S142; HPLC purity: Figures S143–S218). For VH1, the racemic mix, rac-VH1/52, was synthesized and used for testing. Compounds 52, VH2/93, and VH3/115 (Figure S6) were then validated with the GPR3 biosensor including β2AR-HaloTag/Nluc as a negative control.
BRET-based GPCR conformational sensor experiments
Cells expressing the conformational GPCR biosensors were grown for 24 h (stable cells) or 48 h (transiently transfected cells) in white 96-well plates and washed with 100 µl of HBSS. After washing, cells were incubated for 2 minutes with a 1/1000 solution of the furimazine stock solution (Promega; cat. no. N1662). Three baseline BRET reads were recorded and averaged prior to the addition of serial dilutions of ligands or veh icle control and subsequent BRET reads. All experiments were con-ducted at 37 °C. BRE T donor emission was quantified with a 470/80 nm monochromator. BRET acceptor emission was quan-tified using a 660/100 nm monochromator. Experiments were carried out using a CLARIOstar plate reader. […]
FRET and BRET ratios were defined as acceptor emission/donor emission. […] To quantify ligand-induced changes ΔFRET and ΔBRET were calculated for each well as a percent over basal ([(Ratiostim − Ratiobasal)/Ratiobasal] × 100). […]
Data from FRET/BRET experiments were fitted using a three-parameter fit. Z-factors expressing the high-throughput suita-bility were calculated with the following equation: […]
Commercially available chemicals and solvents were purchased from standard commercial suppliers (Merck (Darmstadt, Ger-many), Sigma-Aldrich (Munich, Germany), Acros Organics (Geel, Belgium), Alfa Aesar (Karlsruhe, Germany), abcr (Karlsruhe, Germany), BLD Pharmatech (Reinbek, Germany) or TCI Europe (Zwijndrecht, Belgium) and were used as received. Deuter-ated solvents for nuclear magnetic resonance (1H NMR and 13C NMR) spectra were purchased from Deutero GmbH (Kastel-laun, Germany). All reactions carried out with dry solvents were accomplished in dry flasks under nitrogen or argon atmos-phere. For the preparation of buffers, HPLC eluents, and stock solutions millipore water was used. […] The reactions were monitored by thin layer chromatography (TLC) on Merck silica gel 60 F254 aluminium sheets and spots were visualized under UV light at 254 nm, by potassium permanganate or ninhydrin staining. […]

N=c1n(Cc2ccccc2)c2ccccc2n1CC(O)COc1ccc(Cl)cc1 (stereo not drawn) [compound 52]
specificity of conformational response for GPR3 vs β2AR-HaloTag/Nluc: concentration-dependent and GPR3-specific conformational changes

N=c1n(Cc2ccccc2)c2ccccc2n1CC1CC1 [compound 33]
specificity of conformational response for GPR3 vs β2AR-HaloTag/Nluc: selectivity for GPR3 over β2AR

Cc1ccc(NC(=O)CN2CCN(C(=O)CCc3ccc(Cl)cc3)CC2)cc1 [compound 115]
specificity of conformational response for GPR3 vs β2AR-HaloTag/Nluc: concentration-dependent and GPR3-specific conformational changes
